Measured values as given in ChEMBL document CHEMBL4765464, “Discovery of BMS-986144, a Third-Generation, Pan-Genotype NS3/4A Protease Inhibitor for the Treatment of Hepatitis C Virus Infection” (J Med Chem, 2020).

Experiments:
[1] = Inhibition of recombinant full length NS3/4A protease in Hepatitis C virus subtype 3a replicon infected in human HuH7 cells preincubated for 3 days followed by substrate addition and measured after 2 hrs by renilla luciferase reporter gene assay; assay type: cell-based; settings: Huh-7
[2] = Inhibition of recombinant full length NS3/4A R155K mutant protease in Hepatitis C virus subtype 1a replicon infected in human HuH7 cells preincubated for 3 days followed by substrate addition and measured after 2 hrs by renilla luciferase reporter gene assay; assay type: cell-based; settings: Huh-7
[3] = Clearance in rat at 1 mg/kg, iv; assay type: ADME, organism-based; settings: in vivo
[4] = Clearance in dog at 3 mg/kg, po or 1 mg/kg, iv; assay type: ADME, organism-based, Canis lupus familiaris; settings: in vivo
[5] = Half-life in cynomolgus monkey at 3 mg/kg, po or 1 mg/kg, iv; assay type: ADME, organism-based, Macaca fascicularis; settings: in vivo
[6] = Oral bioavailability in cynomolgus monkey at 3 mg/kg; assay type: ADME, organism-based, Macaca fascicularis; settings: in vivo
[7] = Inhibition of HCV 1b NS3/4A protease; design: species or system Hepatitis C virus subtype 1b
[8] = Inhibition of HCV 2b NS3/4A protease preincubated for 45 mins in presence of compound; design: species or system Hepatitis C virus subtype 2b
[9] = Selectivity index, ratio of IC50 for inhibition of HCV 1b NS3/4A protease to IC50 for inhibition of HCV 1b NS3/4A protease preincubated for 45 mins in presence of compound
[10] = Selectivity index, ratio of IC50 for inhibition of HCV 2a NS3/4A protease to IC50 for inhibition of HCV 2a NS3/4A protease preincubated for 45 mins in presence of compound
[11] = Selectivity index, ratio of IC50 for inhibition of HCV 2b NS3/4A protease to IC50 for inhibition of HCV 2b NS3/4A protease preincubated for 45 mins in presence of compound
[12] = Selectivity index, ratio of IC50 for inhibition of HCV 6a NS3/4A protease to IC50 for inhibition of HCV 6a NS3/4A protease preincubated for 45 mins in presence of compound

CC[C@@H]1C[C@H](C)CC/C=C\[C@@H]2C[C@@]2(C(=O)NS(=O)(=O)C2(C)CC2)NC(=O)[C@@H]2C[C@@H](Oc3nccc4cc(OC)c(F)cc34)CN2C(=O)[C@H]1NC(=O)OC(C)(C)C(F)(F)F showed an EC50 [1] of 14 nM, an EC50 [2] of 11 nM and a clearance [3] of 0.3 mL/min/kg. The clearance [4] was 0.3 mL/min/kg, the half-life [5] was 3 h and the bioavailability [6] was 14%. The IC50 [7] was 0.6 nM, the IC50 [8] was 0.9 nM and the Selectivity Index [9] was 6. It also gave a Selectivity Index [10] of 3.5, a Selectivity Index [11] of 2 and a Selectivity Index [12] of 6.
